Measured values: US6518262B1, “22R-hydroxycholesta-8, 14-diene derivatives for the inhibition of meiosis” (Akzo Nobel N.V., priority 1999, dated 2003)

System: denuded oocytes (DO)
Test: Oocyte assay, antagonistic testing, inhibition of FF-Mas induced maturation in denuded oocytes (DO assay)
Assay type: cell-based, mice (B6D2-F1, strain C57BL×DBA)
Conditions: FF-Mas 5 μM, compound tested 5 μM, control (FF-Mas alone) in brackets
Method: The meiosis inhibiting activity of the 22R-hydroxycholesta-8,14-diene derivatives of the invention is measured in an in vitro oocyte assay as the ability to inhibit the FF-Mas or 22S-hydroxy-FF-Mas induced maturation, in hypoxanthine media, in denuded oocytes (DO) or cumulus enclosed oocytes (CEO), respectively. Natural resumption of meiosis can be mimicked in vitro by addition of FF-Mas or other agonists to the culture medium containing hypoxanthine. The antagonistic activity of the compounds is measured as the ability to inhibit the FF-Mas or 22S-hydroxy-FF-Mas induced oocyte maturation in denuded oocytes or cumulus enclosed oocytes, respectively, in vitro. Ovaries are obtained from immature female mice (B6D2-F1, strain C57BL×DBA). At the age of 19, 20 or 21 days the mice are injected subcutaneously with a single dose of 20 IU follicle stimulating hormone (Humegon, Organon, The Netherlands) in saline. Forty-eight hours after follicle stimulating hormone injection mice are killed by cervical dislocation. The ovaries are removed, freed of extraneous tissue and placed in a multidish containing 0.5 ml preparation medium at 37° C. L-15 Leibovitz medium (Gibco, pH 7.3±0.1) supplemented with bovine serum albumin (3 mg·ml^−1), L-glutamine (0.23 mM), sodium pyruvate (2 mM) and hypoxanthine (4 mM) is used as preparation medium. The antral follicles of the ovaries are punctured under a dissecting microscope using two 27-gauge needles attached to two 1 ml syringes. […] At t=0 the number of oocytes with intact germinal vesicles (GV) or germinal vesicle break-down (GVBD) is counted under an inverted microscope with differential interference contrast equipment. […] At the end of the culture period the number of oocytes with GV or GVBD per group is counted. For statistical analysis the percentage germinal vesicle breakdown is calculated for each group in one block. These percentages are subjected to arcsin transformation, and differences between control and test compounds are analyzed by an ANOVA test for a randomized block design. […]

Row | Structure (SMILES) | % GVBD DO assay exp.
1 | CC(C)CC[C@@H](O)[C@@H](C)[C@H]1CC=C2C3=C(CC[C@@]21C)[C@@]1(C)CC[C@H](O)C(C)(C)[C@@H]1CC3 [Example 1, (3β,5α,20S,22R)-4,4-Dimethylcholesta-8,14-diene-3,22-diol] | 0(55) %
2 | CC(C)=CC[C@@H](O)[C@@H](C)[C@H]1CC=C2C3=C(CC[C@@]21C)[C@@]1(C)CC[C@H](O)C(C)(C)[C@@H]1CC3 [Example 2, (3β,5α,20S,22R)-4,4-Dimethylcholesta-8,14,24-triene-3,22-diol] | 0(90) %
